Measured values reported in patent US9803002B2, “Anti-wall teichoic antibodies and conjugates” (Genentech, Inc., priority 2013, dated 2017).

Tested on: Wood46 strain of S. aureus
Test: Macrophage intracellular killing assay with opsonized, washed bacteria
Format: cell-based, Staphylococcus aureus
Details: 10 μg/mL or 0.5 μg/mL
Protocol: The Wood46 strain of S. aureus was incubated with 10 μg/mL or 0.5 μg/mL of S4497 antibody, Isotype control-AAC containing a cathepsin B cleavable linker, thio-trastuzumab HC A118C-MC-vc-PAB-(dimethyl-pipBOR) AAC-101, thio-S4497 HC WT (v8), LC V205C-MC-vc-PAB-(dimethylpipBOR) AAC-192, Isotype control-AAC containing a staphopain cleavable linker, thio-trastuzumab HC […]-MP-LAFG-PABC-(piperazinoBOR) (“core peptide” disclosed as SEQ ID NO: 128) or thio-S4497 HC v1-MP-LAFG-PABC-(piperazinoBOR) (“core peptide” disclosed as SEQ ID NO: 128) AAC-193 for 1 hour to permit binding of the AAC to bacteria (FIG. 32). To limit non-specific binding of the AAC, the opsonized bacteria were centrifuged, washed once and resuspended in buffer before being fed to murine macrophages. […] Antibody-antibiotic conjugate, thio-54497 LC v8-MP-LAFG-PABC-(piperazinoBOR) (“core peptide” disclosed as SEQ ID NO: 128)AAC-215 is efficacious in vivo in a MRSA infection model: […]

Substance: thio-trastuzumab HC A1118C-MP-LAFG-PABC-(piperazinoBOR)
- killing of intracellular bacteria: no activity
